Assays:
Assay in all cases: combination Emax (second highest fraction inhibited in the dose matrix, 72 h); higher = more inhibition; extreme values may be limits of the assay
NCI-H2461 (Mesothelioma) = system: NCI-H2461 (Mesothelioma)
How it was run: (§1)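 Bliss excess equals the observed combination effect minus the expected value EA + EB − EA·EB, where EA and EB are the effects of each agent alone. Combination Emax is the second-highest inhibition within the matrix. Inhibition was scaled from CellTiter-Glo 2.0 luminescence, with 0 set by vehicle wells and 1 by blank wells, after 72 hours of two-drug dosing of cells plated in 1536-well plates.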

[1] = system: SU-DHL-6 (B-Cell Non-Hodgkin's Lymphoma)
How it was run: as §1

[2] = system: MDA-MB-468 (Breast Carcinoma)
How it was run: as §1

[3] = system: SW1116 (Colorectal Carcinoma)
How it was run: as §1

[4] = system: CAPAN-1 (Pancreatic Carcinoma)
How it was run: as §1

NCI-H2795 (Mesothelioma) = system: NCI-H2795 (Mesothelioma)
How it was run: as §1

HMV-II (Melanoma) = system: HMV-II (Melanoma)
How it was run: as §1

SH-4 (Melanoma) = system: SH-4 (Melanoma)
How it was run: as §1

[5] = system: HO-1-u-1 (Oral Cavity Carcinoma)
How it was run: as §1

[6] = system: HARA (Squamous Cell Lung Carcinoma)
How it was run: as §1

[7] = system: NCI-H69 (Small Cell Lung Carcinoma)
How it was run: as §1

[8] = system: LoVo (Colorectal Carcinoma)
How it was run: as §1

[9] = system: K5 (Thyroid Gland Carcinoma)
How it was run: as §1

[10] = system: CAL-54 (Kidney Carcinoma)
How it was run: as §1

[11] = system: LU-139 (Small Cell Lung Carcinoma)
How it was run: as §1

[12] = system: EN (Endometrial Carcinoma)
How it was run: as §1

NB14 (Neuroblastoma) = system: NB14 (Neuroblastoma)
How it was run: as §1

Mewo (Melanoma) = system: Mewo (Melanoma)
How it was run: as §1

[13] = system: HDLM-2 (Hodgkin's Lymphoma)
How it was run: as §1

[14] = system: PCI-30 (Head and Neck Carcinoma)
How it was run: as §1

SMILES | combination Emax (NCI-H2461 (Mesothelioma)) | combination Emax [1] | combination Emax [2] | combination Emax [3] | combination Emax [4] | combination Emax (NCI-H2795 (Mesothelioma)) | combination Emax (HMV-II (Melanoma)) | combination Emax (SH-4 (Melanoma)) | combination Emax [5] | combination Emax [6] | combination Emax [7] | combination Emax [8] | combination Emax [9] | combination Emax [10] | combination Emax [11] | combination Emax [12] | combination Emax (NB14 (Neuroblastoma)) | combination Emax (Mewo (Melanoma)) | combination Emax [13] | combination Emax [14]
C[C@@H](Nc1cc(F)cc(F)c1)c1cc(C(=O)N(C)C)cc2c(=O)cc(N3CCOCC3)oc12 [AZD8186] + C1CN(CCC1(C(=O)N[C@@H](CCO)C2=CC=C(C=C2)Cl)N)C3=NC=NC4=C3C=CN4 [AZD5363] (first compound max 10 µM, 7x7, partner max 10 µM) | 0.457 | 1 | 0.571 | 0.206 | 0.204 | 0.409 | 0.229 | 0.214 | 0.752 | 0.467 | 0.536 | 0.644 | 0.466 | 0.683 | 0.0726 | 0.536 | 0.213 | 0.345 | 0.235 | 0.313
O=C(c1cc(Cc2n[nH]c(=O)c3ccccc23)ccc1F)N1CCN(C(=O)C2CC2)CC1 [Olaparib] + CN(CC[C@H](CSC1=CC=CC=C1)NC2=C(C=C(C=C2)S(=O)(=O)NC(=O)C3=CC=C(C=C3)N4CCC(CC4)[C@H](C5=CC=CC=C5C6=CC=C(C=C6)Cl)O)S(=O)(=O)C(F)(F)F)CCO [AZD4320] (first compound max 10 µM, 7x7, partner max 1 µM) | 0.17 | 0.919 | 0.684 | 0.118 | 0.663 | 0.451 | 0.0872 | 0.162 | 0.29 | 0.162 | 0.954 | 0.187 | 0.199 | 0.236 | 0.958 | 0.297 | 0.882 | 0.0936 | 0.878 | 0.188
Cc1c2c(nn1C)CSCc1cc(n(C)n1)CSc1cc(c3ccccc3c1)OCCCc1c(C(=O)O)n(C)c3c-2c(Cl)ccc13 [AZD5991] + CC(=O)O[C@H]1C(=O)[C@@]2(C)[C@H]([C@H](OC(=O)c3ccccc3)[C@]3(O)C[C@H](OC(=O)[C@H](O)[C@@H](NC(=O)c4ccccc4)c4ccccc4)C(C)=C1C3(C)C)[C@]1(OC(C)=O)CO[C@@H]1C[C@@H]2O [Paclitaxel] (first compound max 1 µM, 7x7, partner max 3 µM) | 0.443 | 1 | 0.79 | 0.438 | 0.681 | 0.943 | 0.598 | 0.472 | 0.752 | 0.982 | 0.89 | 0.655 | 0.846 | 0.584 | 0.649 | 0.878 | 1 | 0.692 | 0.996 | 0.394
N#Cc1cnc(Nc2cc(NC[C@H]3CNCCO3)c(C(F)(F)F)cn2)cn1 [SRA737] + CCc1c2c(nc3ccc(O)cc13)-c1cc3c(c(=O)n1C2)COC(=O)[C@]3(O)CC [SN-38] (first compound max 10 µM, 7x7, partner max 0.3 µM) | 0.638 | 1 | 0.791 | 0.616 | 0.758 | 0.769 | 0.546 | 0.518 | 0.924 | 0.898 | 0.82 | 0.775 | 0.512 | 0.793 | 0.747 | 0.678 | 0.981 | 0.679 | 0.724 | 0.843
N#Cc1cnc(Nc2cc(NC[C@H]3CNCCO3)c(C(F)(F)F)cn2)cn1 [SRA737] + C=CCn1c(=O)c2cnc(Nc3ccc(N4CCN(C)CC4)cc3)nc2n1-c1cccc(C(C)(C)O)n1 [AZD1775] (first compound max 10 µM, partner max 1 µM) | 0.709 | 0.933 | 0.642 | 0.405 | 0.507 | 0.707 | 0.53 | 0.656 | 0.924 | 0.983 | 0.756 | 0.852 | 0.395 | 0.749 | 0.564 | 0.696 | 0.997 | 0.638 | 0.697 | 0.687
CN(CCO)CC[C@H](CSc1ccccc1)Nc1ccc(S(=O)(=O)NC(=O)c2ccc(N3CCC([C@@H](O)c4ccccc4-c4ccc(Cl)cc4)CC3)cc2)cc1S(=O)(=O)C(F)(F)F [AZD4320] + CS(=O)(=O)CCNCc1ccc(-c2ccc3ncnc(Nc4ccc(OCc5cccc(F)c5)c(Cl)c4)c3c2)o1 [Lapatinib] (first compound max 1 µM, 7x7, partner max 10 µM) | 0.512 | 0.997 | 0.963 | 0.823 | 0.6 | 0.71 | 0.773 | 0.239 | 0.983 | 0.906 | 0.997 | 0.562 | 0.355 | 0.951 | 0.985 | 0.229 | 0.993 | 0.492 | 0.985 | 0.369
